Measured values reported in patent publication US12516016B2, “GPX4 inhibitors, pharmaceutical compositions thereof, and their use for treating GPX4-mediated diseases” (EUBULUS BIOTHERAPEUTICS (HONG KONG) LIMITED, priority 2020, dated 2026).

System: hepatocellular carcinoma cell line Hub-7
Assay: Cell proliferation assay (CELL-TITER GLO cell viability)
Format: cell-based
Conditions: 24 h, Hub-7 cells, 24 h incubation, read-out: Inhibition of Cell Proliferation EC50
Procedure, shortened: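 […] cells (4,000/well) seeded overnight, then exposed 24 h to compound from 10 μM in 3-fold serial dilutions. Viability read by CELL-TITER GLO luminescence; EC50 values derived.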

Structure (SMILES)	EC50 [nM]
C#CC(=O)N(CCc1ccccc1)C1(C(=O)NCc2ccccc2)CCCC(C(=O)OC)C1 (stereo not shown) [A166, Methyl 3-(benzylcarbamoyl)-3-(N-phenethylpropiolamido)cyclohexane-1-carboxylate]	100 to 500
C#CC(=O)N(Cc1cccc(O)c1)C1(C(=O)NCc2ccccc2)CCCC(C(=O)OC)C1 (stereo not shown) [A167, Methyl 3-(benzylcarbamoyl)-3-(N-(3-hydroxybenzyl)propiolamido)cyclohexane-1-carboxylate]	100 to 500
C#CC(=O)N(C1CCC1)C1(C(=O)NCc2ccccc2)CCCC(C(=O)OC)C1 (stereo not shown) [A168, Methyl 3-(benzylcarbamoyl)-3-(N-cyclobutylpropiolamido)cyclohexane-1-carboxylate]	500 to 2000
C#CC(=O)N(CCc1ccccc1)C1(C(=O)NCc2ccccc2)CCCC(C(=O)O)C1 (stereo not shown) [A169, 3-(Benzylcarbamoyl)-3-(N-phenethylpropiolamido)cyclohexane-1-carboxylic acid]	> 10000
C#CC(=O)N(Cc1cccc(O)c1)C1(C(=O)NCc2ccccc2)CCCC(C(=O)O)C1 (stereo not shown) [A170, 3-(Benzylcarbamoyl)-3-(N-(3-hydroxybenzyl)propiolamido)cyclohexane-1-carboxylic acid]	> 10000
C#CC(=O)N(c1cccc(Cl)c1)C1(C(=O)NCc2ccccc2)CCCC(O)C1 (stereo not shown) [A171, N-Benzyl-1-(N-(3-chlorophenyl)propiolamido)-3-hydroxycyclohexane-carboxamide]	2000 to 10000
C#CC(=O)N(c1cccc(Cl)c1)C1(C(=O)NCc2ccccc2)CCCC(=O)C1 (stereo not shown) [A172, N-Benzyl-1-(N-(3-chlorophenyl)propiolamido)-3-oxocyclohexanecarboxamide]	≤ 100
C#CC(=O)N(c1cccc(Cl)c1)C1(C(=O)NCc2ccccc2)CCCC(C(=O)OC)C1 (stereo not shown) [A173, Methyl 3-(benzylcarbamoyl)-3-(N-(3-chlorophenyl)propiolamido)cyclohexane-carboxylate]	≤ 100
C#CC(=O)N(c1cccc(Cl)c1)C1(C(=O)NCc2ccccc2)CCCOC1 (stereo not shown) [A174, N-Benzyl-3-(N-(3-chlorophenyl)propiolamido)tetrahydro-2H-pyran-3-carboxamide]	≤ 100
C#CC(=O)N(c1cccc(Cl)c1)C1(C(=O)NCc2ccccc2)CCC(=O)CC1 [A175, N-Benzyl-1-(N-(3-chlorophenyl)propiolamido)-4-oxocyclohexane-1-carboxamide]	≤ 100
C#CC(=O)N(c1ccc2c(cnn2C)c1)C1(C(=O)NCc2ccccc2)CCCOC1 (stereo not shown) [A176, N-Benzyl-3-(N-(1-methyl-1H-indazol-5-yl)propiolamido)tetrahydro-2H-pyran-3-carboxamide]	≤ 100
C#CC(=O)N(c1ccc2c(cnn2C)c1)C1(C(=O)NCc2ccccc2)CCCC(C(=O)OC)C1 (stereo not shown) [A177, Methyl 3-(benzylcarbamoyl)-3-(N-(1-methyl-1H-indazol-5-yl)propiolamido)-cyclohexane-1-carboxylate]	≤ 100
C#CC(=O)N(c1cccc(Cl)c1)C(C(=O)NCc1ccccc1C#N)c1ccccc1 (stereo not shown) [A178, N-(3-Chlorophenyl)-N-(2-((2-cyanobenzyl)amino)-2-oxo-1-phenylethyl)-propiolamide]	≤ 100
C#CC(=O)N(c1cccc(Cl)c1)C(C(=O)NCC1CCOCC1)c1ccccc1 (stereo not shown) [A180, N-(3-Chlorophenyl)-N-(2-oxo-1-phenyl-2-(((tetrahydro-2H-pyran-4-yl)methyl)-amino)ethyl)propiolamide]	≤ 100
C#CC(=O)N(c1cccc(Cl)c1)C(C(=O)NCC1COC1)c1ccccc1 (stereo not shown) [A181, N-(3-Chlorophenyl)-N-(2-((oxetan-3-ylmethyl)amino)-2-oxo-1-phenylethyl)-propiolamide]	≤ 100
C#CC(=O)N(c1cccc(Cl)c1)C1(C(=O)NCc2cccc(Cl)c2)CCOCC1 [A182, N-(3-Chlorobenzyl)-4-(N-(3-chlorophenyl)propiolamido)tetrahydro-2H-pyran-4-carboxamide]	≤ 100
